Assays:
P. berghei = test: Prophylactic activity against P. berghei in vivo (mice dosed before infection); settings: for Cures 24 h prior to infection (30 mg/kg) / Activity (%) 24 h prior to infection (30 mg/kg): single 30 mg/kg oral dose 24 h prior to infection; for Cures 24 h prior to infection (30 mg/kg) / Cures 48 h prior to infection (100 mg/kg) / Cures 72 h prior to infection (100 mg/kg) / Cures 96 h prior to infection (100 mg/kg): n=5 mice; for Activity (%) 24 h prior to infection (30 mg/kg) / Activity (%) 48 h prior to infection (100 mg/kg): parasitemia day 3 post-infection; for Cures 48 h prior to infection (100 mg/kg) / Activity (%) 48 h prior to infection (100 mg/kg): single 100 mg/kg oral dose 48 h prior to infection; for Activity (%) 72 h prior to infection (100 mg/kg) / Cures 72 h prior to infection (100 mg/kg): single 100 mg/kg oral dose 72 h prior to infection; for Activity (%) 96 h prior to infection (100 mg/kg) / Cures 96 h prior to infection (100 mg/kg): single 100 mg/kg oral dose 96 h prior to infection
Procedure: All groups (n=5 mice per group) including an untreated control group, were infected at the same time and parasitemia was determined for each animal on day 3 post-infection and compared with the level of parasitemia in control animals.

[1] = Pharmacokinetic studies in rats (oral); format: in vivo, rat; settings: oral 10 mg/kg; for Oral Bioavailability at 10 mg/kg (%): relative to an IV dose
Procedure: Pharmacokinetic studies in rats: Compounds were administered orally to rats (n=2) at a dose of 10 mg/kg in a suspension formulation containing hydroxypropylmethyl cellulose, Tween 80, benzyl alcohol, and water. […] Oral bioavailability for each compound was calculated relative to an IV dose for each compound in a suitable vehicle.

[2] = Blood stability studies in freshly collected rat blood; format: in vitro ADME; set-up: unit not given here
Procedure: Blood stability studies: Compounds were incubated at 37° C. in freshly collected rat blood. At selected time points, duplicate aliquots of the whole blood were sampled, centrifuged and the plasma assayed for parent compound by LC-MS.

[3] = tested on: ANKA strain of P. berghei; test: Single dose in vivo screen in P. berghei-infected NMRI mice; settings: for Survival (days) 30 mg/kg SSV po / Activity (%) 30 mg/kg SSV po: single 30 mg/kg po dose in SSV one day post-infection; for Activity (%) 30 mg/kg SSV po: percent reduction in parasitemia on day three post-infection; for Cures 30 mg/kg SSV po: single 30 mg/kg po dose in SSV, cure = survival to day 30 post-infection, groups of five mice
Procedure: Activity of 1,2,4-trioxolanes against P. berghei in vivo. In the single dose in vivo screen, NMRI mice infected with the ANKA strain of P. berghei (groups of five mice) were treated one day post-infection with trioxolanes dissolved or suspended in standard suspending vehicle (SSV). The SSV consists of either 0.5% w/v carboxymethyl cellulose, 0.5% v/v benzyl alcohol, 0.4% v/v Tween 80, and 0.9% w/v sodium chloride in water or 0.5% hydroxypropylmethylcellulose 0.4% v/s Tween 80, and 0.5% v/v benzyl alcohol in water. […] Antimalarial activity was measured by percent reduction in parasitemia on day three post-infection and survival times compared to an untreated control group. Survival to day 30 post-infection is considered to be a cure in this model.

SMILES	Cures 24 h prior to infection (30 mg/kg) (P. berghei)	Activity (%) 24 h prior to infection (30 mg/kg) (P. berghei) [%]	Cures 48 h prior to infection (100 mg/kg) (P. berghei)	Activity (%) 48 h prior to infection (100 mg/kg) (P. berghei) [%]	Activity (%) 72 h prior to infection (100 mg/kg) (P. berghei) [%]	Cures 72 h prior to infection (100 mg/kg) (P. berghei)	Activity (%) 96 h prior to infection (100 mg/kg) (P. berghei) [%]	Cures 96 h prior to infection (100 mg/kg) (P. berghei)	Oral Bioavailability at 10 mg/kg (%) [1] [%]	Stability in Rat Blood (t1/2) at 37° C. [2]	In Vivo Oral t1/2 at 10 mg/kg [1] [h]	Survival (days) 30 mg/kg SSV po [3] [days]	Activity (%) 30 mg/kg SSV po [3] [%]	Cures 30 mg/kg SSV po [3]	Malaria-curative with a single dose ([3]; single dose, dose not stated)	In Vivo Oral t1/2 at 10 mg/kg ([1]; 10 mg/kg) [h]	Oral Bioavailability at 10 mg/kg (%) ([1]; 10 mg/kg)
CS(=O)(=O)O.c1cc([C@H]2CC[C@]3(CC2)OOC2(O3)C3CC4CC(C3)CC2C4)ccc1OCCCN1CCOCC1 (stereo partly shown) [OZ461]	5/5	99.9	5/5	99.7	99.6	5/5	99.4	4/5	71	–	–	–	–	–	–	–	–
CS(=O)(=O)N1CCN(CCCOc2ccc([C@H]3CC[C@]4(CC3)OOC3(O4)C4CC5CC(C4)CC3C5)cc2)CC1.Cc1ccc(S(=O)(=O)O)cc1 (stereo partly shown) [OZ482]	3/5	>99.9	5/5	>99.9	99.6	4/5	99.6	3/5	100	>17	9.6	–	–	–	–	–	–
Cc1ccc(S(=O)(=O)O)cc1.O[C@H]1CC[C@H](NCCCOc2ccc([C@H]3CC[C@]4(CC3)OOC3(O4)C4CC5CC(C4)CC3C5)cc2)CC1 (stereo partly shown) [OZ535]	0/5	>99.9	5/5	>99.9	–	–	–	–	–	–	–	–	–	–	–	–	–
NCCOc1ccc([C@H]2CC[C@]3(CC2)OO[C@]2(O3)C3CC4CC(C3)CC2C4)cc1 [OZ323, reference compound]	0/5	99.7	5/5	99.5	>99.9	1/5	90	0/5	100	7.7	5.2	–	–	–	–	–	–
CS(=O)(=O)O.c1cc(C2CCC3(CC2)OOC2(O3)C3CC4CC(C3)CC2C4)ccc1OCCN1CCSCC1 (stereo not shown) [OZ460]	3/5	99.8	5/5	99.6	–	–	–	–	–	–	–	25.0	99	3/5	–	–	–
C[C@H]1[C@H](OC(=O)CCC(=O)O)O[C@@H]2O[C@@]3(C)CC[C@H]4[C@H](C)CC[C@@H]1[C@@]24OO3 [AS, artesunate, reference compound]	0/5	21	0/5	0	–	–	–	–	–	–	–	9.0	92	0/5	–	–	–
CS(=O)(=O)O.c1cc([C@H]2CC[C@]3(CC2)OOC2(O3)C3CC4CC(C3)CC2C4)ccc1OC1CCNCC1 (stereo partly shown) [OZ429]	2/5	99.8	5/5	99.8	–	–	–	–	73	5.5	5.3	27.8	99.97	4/5	–	–	–
CC(C)(N)CCOc1ccc(C2CCC3(CC2)OOC2(O3)C3CC4CC(C3)CC2C4)cc1.Cc1ccc(S(=O)(=O)O)cc1 (stereo not shown) [OZ539]	4/5	>99.9	5/5	>99.9	–	–	–	–	–	–	–	25.2	99.7	3/5	malaria-curative in some instances with a single dose	–	–
CS(=O)(=O)O.NCCCCCOc1ccc(C2CCC3(CC2)OOC2(O3)C3CC4CC(C3)CC2C4)cc1 (stereo not shown) [OZ498]	4/5	99.8	5/5	99.8	–	–	–	–	–	–	–	–	–	–	–	–	–
CS(=O)(=O)N1CCN(CCOc2ccc([C@H]3CC[C@]4(CC3)OOC3(O4)C4CC5CC(C4)CC3C5)cc2)CC1.CS(=O)(=O)O (stereo partly shown) [OZ485]	3/5	>99.9	5/5	>99.9	–	–	–	–	–	–	–	–	–	–	–	–	–
O[C@H]1CC[C@@H](C2CCC3(CC2)OOC2(O3)C3CC4CC(C3)CC2C4)CC1 (stereo partly shown) [OZ508]	4/5	99.7	4/5	99.8	–	–	–	–	–	–	–	24.4	99.8	3/5	–	–	–
CC(C)(CN)Oc1ccc(C2CCC3(CC2)OOC2(O3)C3CC4CC(C3)CC2C4)cc1.CS(=O)(=O)O (stereo not shown) [OZ453]	0/5	99.9	5/5	99.7	–	–	–	–	–	6.1	–	–	–	–	–	–	–
O=C1CCC([C@H]2CC[C@]3(CC2)OOC2(O3)C3CC4CC(C3)CC2C4)CC1 (stereo partly shown) [OZ495]	1/5	>99.9	0/5	>99.9	–	–	–	–	–	–	–	26.8	99.3	3/5	–	–	–
NC[C@H]1CC[C@]2(CC1)OOC1(O2)C2CC3CC(C2)CC1C3 (stereo partly shown) [OZ209, reference compound]	–	–	–	–	–	–	–	–	12	0.8	1.2	–	–	–	–	–	–
OC1CCN(CCOc2ccc([C@H]3CC[C@]4(CC3)OOC3(O4)C4CC5CC(C4)CC3C5)cc2)CC1 (stereo partly shown) [OZ513]	1/5	99.9	5/5	99.7	–	–	–	–	–	–	–	–	–	–	–	–	–
CC(C)(O)CNCCCOc1ccc([C@H]2CC[C@]3(CC2)OOC2(O3)C3CC4CC(C3)CC2C4)cc1.Cc1ccc(S(=O)(=O)O)cc1 (stereo partly shown) [OZ505]	2/5	>99.9	5/5	99.5	–	–	–	–	–	–	–	–	–	–	–	–	–
CS(=O)(=O)O.NC1CCC(Oc2ccc(C3CCC4(CC3)OOC3(O4)C4CC5CC(C4)CC3C5)cc2)CC1 (stereo not shown) [OZ537]	5/5	>99.9	5/5	>99.9	–	–	–	–	–	>17	–	–	–	–	–	11.8	29

Source: patent US8067620B2, “Dispiro 1,2,4-trioxolane antimalarials” (Medicines for Malaria Venture MMV, priority 2005, dated 2011)
